Test results: ChEMBL document CHEMBL1148604 (J Med Chem, 2006)
≈ marks a conversion by molar mass, not a printed value. Calls of active or inactive are those of the source. The rule behind the calls is not given here.

Key:
Escherichia coli = assay: Inhibitory activity against Escherichia coli ANSI; type: functional
[1] = molecular target: T1, 3-oxoacyl-[acyl-carrier-protein] synthase 1 (Mycobacterium tuberculosis) (UniProt P9WQD9); assay: Inhibitory activity against KasA from Mycobacterium tuberculosis H37Rv at 100 uM
T1 sequence (whole entry): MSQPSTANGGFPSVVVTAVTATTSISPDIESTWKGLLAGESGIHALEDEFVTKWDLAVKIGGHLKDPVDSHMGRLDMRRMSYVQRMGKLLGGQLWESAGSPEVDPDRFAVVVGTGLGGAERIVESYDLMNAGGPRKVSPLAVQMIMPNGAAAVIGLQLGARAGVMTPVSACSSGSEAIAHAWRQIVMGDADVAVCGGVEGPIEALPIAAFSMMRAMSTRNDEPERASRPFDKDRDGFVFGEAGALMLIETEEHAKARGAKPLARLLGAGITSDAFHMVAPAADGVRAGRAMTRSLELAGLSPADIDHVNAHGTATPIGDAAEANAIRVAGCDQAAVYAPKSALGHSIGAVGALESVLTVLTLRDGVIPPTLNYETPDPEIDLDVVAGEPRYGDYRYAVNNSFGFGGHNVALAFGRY

[2] = molecular target: T2, 3-oxoacyl-[acyl-carrier-protein] synthase 3 (Escherichia coli, UniProt C3TDZ2); assay: Inhibitory activity against FabH from Escherichia coli ANSI
T2 sequence (C3TDZ2 whole entry): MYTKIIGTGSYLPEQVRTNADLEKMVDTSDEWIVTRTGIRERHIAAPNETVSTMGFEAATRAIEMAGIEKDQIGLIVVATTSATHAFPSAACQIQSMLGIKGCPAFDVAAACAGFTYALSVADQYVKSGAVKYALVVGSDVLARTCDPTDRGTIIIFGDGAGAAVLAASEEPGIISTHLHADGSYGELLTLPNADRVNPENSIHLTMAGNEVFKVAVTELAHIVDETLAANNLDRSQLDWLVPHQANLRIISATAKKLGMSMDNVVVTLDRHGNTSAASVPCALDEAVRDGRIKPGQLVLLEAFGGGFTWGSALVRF

[3] = molecular target: T3, Mycobacterial beta-ketoacyl-[acyl-carrier-protein] synthase III (Mycobacterium tuberculosis) (UniProt P9WNG3); assay: Inhibitory activity against FabH from Mycobacterium tuberculosis H37Rv at 100 uM
T3 sequence (whole entry): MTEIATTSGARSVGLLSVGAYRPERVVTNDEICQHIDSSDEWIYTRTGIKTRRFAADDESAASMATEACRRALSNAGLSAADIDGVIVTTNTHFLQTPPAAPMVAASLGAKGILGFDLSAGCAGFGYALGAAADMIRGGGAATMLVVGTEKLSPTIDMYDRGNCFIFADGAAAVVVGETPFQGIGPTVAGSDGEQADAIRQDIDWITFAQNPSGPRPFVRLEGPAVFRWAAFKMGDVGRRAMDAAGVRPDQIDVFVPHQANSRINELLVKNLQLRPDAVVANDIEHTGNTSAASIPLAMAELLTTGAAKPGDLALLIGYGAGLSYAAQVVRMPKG

[4] = molecular target: T4, 3-oxoacyl-[acyl-carrier-protein] synthase 3 (Escherichia coli) (UniProt C3TDZ2); assay: Inhibitory activity against FabH from Escherichia coli ANSI at 100 uM
T4 sequence (whole entry): T2 sequence (C3TDZ2 whole entry)

[5] = system: Mycobacterium tuberculosis; assay: Inhibitory activity against Mycobacterium tuberculosis H37Rv; type: functional
[6] = molecular target: T5, 3-oxoacyl-[acyl-carrier-protein] synthase 2 (Mycobacterium tuberculosis) (UniProt P9WQD7); assay: Inhibitory activity against KasB from Mycobacterium tuberculosis H37Rv at 100 uM
T5 sequence (whole entry): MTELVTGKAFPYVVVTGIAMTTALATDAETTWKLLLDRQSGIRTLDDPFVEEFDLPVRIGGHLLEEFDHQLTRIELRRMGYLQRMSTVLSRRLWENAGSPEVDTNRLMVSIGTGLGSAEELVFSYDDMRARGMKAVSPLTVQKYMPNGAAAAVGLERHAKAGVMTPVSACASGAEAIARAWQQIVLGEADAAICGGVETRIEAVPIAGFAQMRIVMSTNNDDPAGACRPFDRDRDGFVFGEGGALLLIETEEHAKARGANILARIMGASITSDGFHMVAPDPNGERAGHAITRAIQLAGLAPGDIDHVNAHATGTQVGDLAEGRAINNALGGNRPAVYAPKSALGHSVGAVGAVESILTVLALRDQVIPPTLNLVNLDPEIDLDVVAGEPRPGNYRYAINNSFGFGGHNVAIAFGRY

[7] = molecular target: T6, 3-oxoacyl-[acyl-carrier-protein] synthase 1 (Escherichia coli K-12) (UniProt P0A953); assay: Inhibitory activity against FabB from Escherichia coli ANSI at 100 uM
T6 sequence (whole entry): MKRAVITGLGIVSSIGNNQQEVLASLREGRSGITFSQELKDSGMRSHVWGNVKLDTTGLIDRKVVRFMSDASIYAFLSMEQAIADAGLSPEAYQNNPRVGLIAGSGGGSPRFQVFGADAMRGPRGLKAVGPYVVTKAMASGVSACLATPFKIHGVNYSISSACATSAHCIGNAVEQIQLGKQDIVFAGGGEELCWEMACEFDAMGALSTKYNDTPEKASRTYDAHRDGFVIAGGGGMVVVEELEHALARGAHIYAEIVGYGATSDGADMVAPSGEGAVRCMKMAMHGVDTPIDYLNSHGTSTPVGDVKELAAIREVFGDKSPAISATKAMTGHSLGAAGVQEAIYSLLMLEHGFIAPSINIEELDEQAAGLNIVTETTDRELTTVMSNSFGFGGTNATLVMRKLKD

[8] = molecular target: T7, Mycobacterial beta-ketoacyl-[acyl-carrier-protein] synthase III (Mycobacterium tuberculosis, UniProt P9WNG3); assay: Inhibitory activity against FabH from Mycobacterium tuberculosis H37Rv
T7 sequence (P9WNG3 whole entry): T3 sequence (whole entry)

[9] = molecular target: T8, 3-oxoacyl-[acyl-carrier-protein] synthase 1 (Escherichia coli K-12, UniProt P0A953); assay: Inhibitory activity against FabB from Escherichia coli ANSI
T8 sequence (P0A953 whole entry): T6 sequence (whole entry)

Fatty acid synthase [10] = molecular target: T9, Fatty acid synthase (Homo sapiens, UniProt P49327); assay: Inhibitory activity against human FAS1 at 100 uM
Target sequence in this assay (P49327 whole entry, looked up): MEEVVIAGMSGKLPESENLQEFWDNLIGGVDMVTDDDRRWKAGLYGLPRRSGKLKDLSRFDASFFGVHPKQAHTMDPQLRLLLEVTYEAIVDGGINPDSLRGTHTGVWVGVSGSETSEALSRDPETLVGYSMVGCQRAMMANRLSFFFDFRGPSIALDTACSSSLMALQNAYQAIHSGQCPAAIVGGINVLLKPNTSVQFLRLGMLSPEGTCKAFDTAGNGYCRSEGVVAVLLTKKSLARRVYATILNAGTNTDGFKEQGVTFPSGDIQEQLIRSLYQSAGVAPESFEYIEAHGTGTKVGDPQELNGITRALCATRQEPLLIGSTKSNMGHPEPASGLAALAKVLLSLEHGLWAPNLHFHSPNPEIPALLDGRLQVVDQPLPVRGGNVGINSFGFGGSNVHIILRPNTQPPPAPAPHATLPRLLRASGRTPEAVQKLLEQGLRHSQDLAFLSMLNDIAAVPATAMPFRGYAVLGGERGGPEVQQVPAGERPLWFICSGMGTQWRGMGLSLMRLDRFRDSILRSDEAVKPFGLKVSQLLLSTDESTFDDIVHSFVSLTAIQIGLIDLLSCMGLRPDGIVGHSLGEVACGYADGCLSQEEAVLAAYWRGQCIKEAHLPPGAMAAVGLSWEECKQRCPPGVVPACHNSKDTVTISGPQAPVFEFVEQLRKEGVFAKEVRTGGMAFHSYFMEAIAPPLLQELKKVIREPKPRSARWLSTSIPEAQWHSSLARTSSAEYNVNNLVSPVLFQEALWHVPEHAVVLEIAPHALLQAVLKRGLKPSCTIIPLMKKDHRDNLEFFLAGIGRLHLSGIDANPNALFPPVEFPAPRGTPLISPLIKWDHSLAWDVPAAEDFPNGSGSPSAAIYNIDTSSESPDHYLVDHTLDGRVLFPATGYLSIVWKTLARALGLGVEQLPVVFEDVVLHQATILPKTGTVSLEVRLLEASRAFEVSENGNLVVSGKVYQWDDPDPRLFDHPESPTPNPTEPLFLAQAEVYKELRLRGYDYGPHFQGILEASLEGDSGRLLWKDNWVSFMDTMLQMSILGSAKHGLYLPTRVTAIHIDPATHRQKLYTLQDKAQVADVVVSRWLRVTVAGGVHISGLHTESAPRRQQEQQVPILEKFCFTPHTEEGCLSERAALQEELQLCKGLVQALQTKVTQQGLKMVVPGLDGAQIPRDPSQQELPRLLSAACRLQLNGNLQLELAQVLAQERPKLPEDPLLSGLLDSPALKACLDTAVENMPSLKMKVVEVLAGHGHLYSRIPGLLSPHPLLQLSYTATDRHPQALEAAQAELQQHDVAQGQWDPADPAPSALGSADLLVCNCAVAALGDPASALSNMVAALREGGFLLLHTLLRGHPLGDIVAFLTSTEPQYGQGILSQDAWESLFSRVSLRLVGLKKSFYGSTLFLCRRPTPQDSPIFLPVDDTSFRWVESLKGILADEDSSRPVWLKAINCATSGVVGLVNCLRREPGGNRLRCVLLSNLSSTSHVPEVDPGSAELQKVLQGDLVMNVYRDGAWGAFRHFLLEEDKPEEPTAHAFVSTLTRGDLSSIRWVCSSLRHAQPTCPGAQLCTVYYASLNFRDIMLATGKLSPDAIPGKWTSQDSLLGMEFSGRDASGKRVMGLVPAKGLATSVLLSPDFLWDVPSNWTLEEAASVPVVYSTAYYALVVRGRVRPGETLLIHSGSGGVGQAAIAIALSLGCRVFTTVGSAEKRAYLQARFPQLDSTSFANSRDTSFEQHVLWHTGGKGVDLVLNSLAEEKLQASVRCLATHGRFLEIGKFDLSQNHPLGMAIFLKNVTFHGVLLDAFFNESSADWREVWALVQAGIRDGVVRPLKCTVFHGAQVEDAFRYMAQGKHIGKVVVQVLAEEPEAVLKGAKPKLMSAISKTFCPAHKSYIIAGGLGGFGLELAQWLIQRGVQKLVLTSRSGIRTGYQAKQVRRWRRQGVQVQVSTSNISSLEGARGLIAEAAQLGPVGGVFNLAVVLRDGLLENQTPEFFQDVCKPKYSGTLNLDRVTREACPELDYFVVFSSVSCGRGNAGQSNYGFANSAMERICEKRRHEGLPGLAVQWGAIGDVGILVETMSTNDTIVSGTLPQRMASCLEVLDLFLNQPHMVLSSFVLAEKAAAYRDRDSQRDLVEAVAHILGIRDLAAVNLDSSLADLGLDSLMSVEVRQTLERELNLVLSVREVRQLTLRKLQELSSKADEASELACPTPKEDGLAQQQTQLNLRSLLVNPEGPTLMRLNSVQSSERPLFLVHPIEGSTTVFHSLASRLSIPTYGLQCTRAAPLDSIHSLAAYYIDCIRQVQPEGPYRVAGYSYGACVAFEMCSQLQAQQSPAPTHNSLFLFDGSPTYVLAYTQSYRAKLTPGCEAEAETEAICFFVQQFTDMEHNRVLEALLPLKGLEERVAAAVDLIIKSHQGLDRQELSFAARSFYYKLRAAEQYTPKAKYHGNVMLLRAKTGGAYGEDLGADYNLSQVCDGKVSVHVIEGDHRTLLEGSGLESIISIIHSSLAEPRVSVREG

[11] = molecular target: T10, 3-oxoacyl-[acyl-carrier-protein] synthase 2 (Mycobacterium tuberculosis, UniProt P9WQD7); assay: Inhibitory activity against KasB from Mycobacterium tuberculosis H37Rv
T10 sequence (P9WQD7 whole entry): T5 sequence (whole entry)

wild-type apo-KasA = wild-type apo-KasA (Mycobacterium tuberculosis, UniProt P9WQD9); assay: Inhibitory activity against KasA from Mycobacterium tuberculosis H37Rv
Fatty acid synthase [12] = molecular target: T9, Fatty acid synthase; assay: Inhibitory activity against human FAS1
Target sequence in this assay (P49327 whole entry): as the sequence (P49327 whole entry, looked up) above

Row | SMILES | MIC (Escherichia coli) [µM] | inhibition [1] | IC50 [2] [µM] | inhibition [3] | inhibition [4] | MIC [5] [µM] | inhibition [6] | inhibition [7] | IC50 [8] [µM] | IC50 [9] [µM] | inhibition (Fatty acid synthase [10]) | IC50 [11] [µM] | IC50 (wild-type apo-KasA) [µM] | IC50 (Fatty acid synthase [12]) [µM]
1 | CCCCCCCCC1(C)SC(O)=C(C)C1=O (stereo unspecified) | 200 (≈ 51.3 µg/mL) | inactive | > 100 | < 30% | < 30% | > 1000 | inactive | inactive | > 100 |  |  |  |  | 
2 | C/C=C/C(C)=C/[C@@]1(C)SC(O)=C(C)C1=O | 200 (≈ 44.9 µg/mL) |  |  |  |  | 1000 (≈ 224 µg/mL) |  |  |  | 500 | inactive | 400 | 50 | 
3 | CC/C(C)=C/[C@@]1(C)SC(O)=C(C)C1=O | > 200 | inactive |  |  |  | > 1000 | inactive | inactive |  |  | inactive |  |  | 
4 | C=CCCCCC1(C)SC(=O)C(C)=C1O (stereo unspecified) | > 1000 | < 30% |  | inactive | inactive | 1000 (≈ 226 µg/mL) | inactive | inactive |  |  |  |  | > 100 | 
5 | CC[C@H](C)CC1(C)SC(O)=C(C)C1=O (stereo partly specified) | > 1000 | inactive | > 100 | inactive | < 30% | 500 (≈ 107 µg/mL) | inactive | inactive |  |  |  |  |  | 
6 | CC(C)=CCC1(C)SC(O)=C(C)C1=O (stereo unspecified) | > 1000 | < 30% |  | inactive | inactive | > 1000 | inactive | inactive |  |  |  |  | > 100 | 
7 | C=C/C(C)=C/C1(C)SC(O)=C(C)C1=O (racemic) [RAC-THIOLACTOMYCIN] | 12 (≈ 2.52 µg/mL) |  |  |  |  | 125 (≈ 26.3 µg/mL) |  |  |  | 20 |  |  |  | 143
8 | CC1=C(O)C(C)(Cc2ccc(C(F)(F)F)cc2)SC1=O (stereo unspecified) | > 1000 | inactive |  | < 30% | inactive | 1000 (≈ 302 µg/mL) | inactive | inactive | > 100 |  |  |  |  | 
9 | CC1=C(O)C(C)(CC2CC2)SC1=O (stereo unspecified) | > 1000 | inactive | > 100 | inactive | < 30% | > 1000 | inactive | inactive |  |  |  |  |  | 
10 | CC1=C(O)C(C)(C2CCCCC2)SC1=O (stereo unspecified) | > 1000 | inactive |  | < 30% | inactive | 1000 (≈ 226 µg/mL) | inactive | inactive | > 100 |  |  |  |  | 
11 | CC(C)=CCC/C(C)=C/CC/C(C)=C/CC1(C)SC(O)=C(C)C1=O (stereo unspecified) | 200 (≈ 69.7 µg/mL) | inactive | > 100 | inactive | < 30% | > 1000 | < 30% | inactive |  |  |  | > 100 |  | 
12 | CCC(C)C1(C)SC(O)=C(C)C1=O (stereo unspecified) | > 1000 | inactive |  | < 30% | inactive | > 1000 | inactive | inactive | > 100 |  |  |  |  | 
13 | C=C/C=C/C1(C)SC(=O)C(C)=C1O (stereo unspecified) | 200 (≈ 39.3 µg/mL) |  |  |  |  | 1000 (≈ 196 µg/mL) |  |  |  | 500 | inactive | 400 | 25 | 
14 | CC1=C(O)SC(C)(C(C)C)C1=O (stereo unspecified) | > 1000 | inactive |  | inactive | inactive | > 1000 | inactive | inactive |  |  |  |  |  | 
15 | C=CC(C)C[C@@]1(C)SC(O)=C(C)C1=O (stereo partly specified) | > 200 | inactive |  |  |  | > 1000 | inactive | inactive |  |  | inactive |  |  | 
16 | CCC(C)C[C@@]1(C)SC(O)=C(C)C1=O (stereo partly specified) | > 200 | inactive |  |  |  | > 1000 | inactive | inactive |  |  | inactive |  |  | 
17 | CC1=C(O)C(C)(Cc2ccccc2)SC1=O (stereo unspecified) | > 1000 | inactive |  | inactive | inactive | > 1000 | inactive | inactive |  |  |  |  |  | 
18 | CC1=C(O)C(C)(Cc2ccc(Cl)c(Cl)c2)SC1=O (stereo unspecified) | > 1000 | inactive | > 100 | < 30% | < 30% | 500 (≈ 152 µg/mL) | inactive | inactive | > 100 |  |  |  |  | 
19 | C=CCCCC1(C)SC(=O)C(C)=C1O (stereo unspecified) | > 1000 | < 30% |  | inactive | inactive | > 1000 | inactive | inactive |  |  |  |  | > 100 | 
20 | CC1=C(O)C(C)(Cc2ccc(Cl)cc2Cl)SC1=O (stereo unspecified) | 150 (≈ 45.5 µg/mL) | inactive |  | < 30% | inactive | 500 (≈ 152 µg/mL) | inactive | inactive | > 100 |  |  |  |  | 
21 | CCCCCC1(C)SC(O)=C(C)C1=O (stereo unspecified) | > 1000 | inactive |  | inactive | inactive | 500 (≈ 107 µg/mL) | inactive | inactive |  |  |  |  |  | 
22 | CCCCCCC1(C)SC(O)=C(C)C1=O (stereo unspecified) | > 1000 | inactive |  | inactive | inactive | 1000 (≈ 228 µg/mL) | inactive | inactive |  |  |  |  |  | 
